Test results published in patent publication US20260035376A1, “COMPOSITIONS AND METHODS FOR INHIBITION OF RAS” (TheRas, Inc., priority 2022, published 2026).

Legend:
[1] = target: T1, Avi-KRAS G12D (1-169) GppNHp/RAF1 RBD-3×FLAG (52-151) (Homo sapiens, UniProt P01116, G12D); assay: Disrupting RAS-effector binding HTRF assay, Raf1 RBD-KRAS G12D-GppNHp; details: PPI HTRF, 50 nM Avi-KRAS G12D GppNHp, compound titration 30-0.0045 μM; read-out: Raf1 RBD-KRAS G12D-GppNHp disruption
T1 construct: 50 nM Avi-KRAS G12D (1-169) GppNHp/RAF1 RBD-3×FLAG (52-151)

[2] = target: T2, Avi-KRAS G12V (1-169) GppNHp/RAF1 RBD-3×FLAG (52-151) (Homo sapiens, UniProt P01116, G12V); assay: Disrupting RAS-effector binding HTRF assay, Raf1 RBD-KRAS G12V-GppNHp; details: PPI HTRF, 50 nM Avi-KRAS G12V GppNHp, compound titration 30-0.0045 μM; read-out: Raf1 RBD-KRAS G12V-GppNHp disruption
T2 construct: 50 nM Avi-KRAS G12V (1-169) GppNHp/RAF1 RBD-3×FLAG (52-151)

[3] = target: T3, Avi-KRAS G12R (1-169) GppNHp/RAF1 RBD-3×FLAG (52-151) (Homo sapiens, UniProt P01116, G12R); assay: Disrupting RAS-effector binding HTRF assay, Raf1 RBD-KRAS G12R-GppNHp; details: PPI HTRF, 50 nM Avi-KRAS G12R GppNHp, compound titration 30-0.0045 μM; read-out: Raf1 RBD-KRAS G12R-GppNHp disruption
T3 construct: 50 nM Avi-KRAS G12R (1-169) GppNHp/RAF1 RBD-3×FLAG (52-151)

[4] = target: T4, Avi-KRAS WT (1-169) GppNHp/RAF1 RBD-3×FLAG (52-151) (Homo sapiens, UniProt P01116); assay: Disrupting RAS-effector binding HTRF assay, Raf1 RBD-KRAS WT-GppNHp; details: PPI HTRF, 50 nM Avi-KRAS WT GppNHp, compound titration 30-0.0045 μM; read-out: Raf1 RBD-KRAS WT-GppNHp disruption
T4 construct: 50 nM Avi-KRAS WT (1-169) GppNHp/RAF1 RBD-3×FLAG (52-151)

[5] = tested on: KRAS G12D protein/effector signaling in GP2d cells; assay: Cell-based pERK HTRF assay in GP2d cell; details: 1 h, 60 min incubation
Procedure, shortened: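 GP2d cells (DMEM, 10% FBS) exposed 60 min to a 9-point half-log compound series at 0.25% DMSO, then lysed. Phospho-ERK quantified by HTRF with d2/Eu cryptate antibodies after 4–24 h at room temperature, ex 320/em 615 nm.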

[6] = tested on: KRAS G12V protein/effector signaling in SW620 cells; assay: Cell-based pERK HTRF assay in SW620 cell; details: Homo sapiens, SW-620, 1 h incubation
Procedure: pERK assay (Perkin Elmer) was used to determine the effectiveness of compounds in disrupting KRAS G12V protein/effector signaling in cells.
On Day 1, cells (SW620) were seeded into 96-well plates at 3×10^4 cells/well in 80 μL complete growth media (DMEM, 10% FBS).
On Day 2, cells were treated with compounds at 0.25% DMSO. The source plate was created with compounds diluted in media at 5-fold the final assay concentration. The compounds were run in a 9-point concentration curve starting at 10 μM, with a half-log dilution between concentrations. 20 μL was transferred onto the cell plates (final volume in wells was 100 μL). Plates were harvested after 1 h incubation by aspirating media and adding kit-supplied 1× supplemented lysis buffer to all wells (50 μL per well). Plates were then placed on a plate shaker and incubated at 850 rpm for an additional 30 min.
Antibody mixture solution was prepared by diluting aliquoted d2 and Eu Cryptate antibodies 1:20 in kit supplied detection buffer, and mixing the diluted antibodies solutions (1:1 v:v). Four μL of this solution was then added to a 384-well detection plate (Perkin Elmer; 6008230).
Samples were homogenized by pipetting up and down and then transferred (16 μL of cell lysates) from the 96-well cell culture plate to two wells of the HTRF 384-well detection plate containing the antibody solution. Plates were centrifuged (524 g for 1 min) and allowed to incubate between 4 and 24 h at room temperature. Maximum signal was reached after 4 h incubation time and remained stable over a period of 24 hours. Therefore, readings could be made between 4 and 24 h of incubation. Plates were centrifuged again (524 g for 1 min), then analyzed on the EnVision plate reader using the following settings: Excitation 320 nm, Bandwidth 75 nm; Emission 615 nm, Bandwidth 85 nm; Gain 100%; Flashes 100; Lag 60 μs.

T1 sequence (P01116 1-169 isoform P01116-2 G12D limits assumed): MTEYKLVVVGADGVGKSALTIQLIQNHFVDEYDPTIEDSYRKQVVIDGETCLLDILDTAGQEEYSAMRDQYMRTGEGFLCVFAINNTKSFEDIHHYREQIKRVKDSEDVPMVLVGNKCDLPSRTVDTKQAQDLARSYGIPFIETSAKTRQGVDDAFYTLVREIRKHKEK
T2 sequence (P01116 1-169 isoform P01116-2 G12V limits assumed): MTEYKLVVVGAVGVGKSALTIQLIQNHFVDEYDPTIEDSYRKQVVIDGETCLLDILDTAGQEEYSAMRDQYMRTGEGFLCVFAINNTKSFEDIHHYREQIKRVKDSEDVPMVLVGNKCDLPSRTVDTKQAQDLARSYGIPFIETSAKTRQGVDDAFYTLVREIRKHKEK
T3 sequence (P01116 1-169 isoform P01116-2 G12R limits assumed): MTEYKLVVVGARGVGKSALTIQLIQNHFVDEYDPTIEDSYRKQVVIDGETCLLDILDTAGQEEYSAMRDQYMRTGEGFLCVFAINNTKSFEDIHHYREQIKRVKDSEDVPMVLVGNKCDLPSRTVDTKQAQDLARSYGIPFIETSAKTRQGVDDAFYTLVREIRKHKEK
T4 sequence (P01116 1-169 isoform P01116-2 limits assumed): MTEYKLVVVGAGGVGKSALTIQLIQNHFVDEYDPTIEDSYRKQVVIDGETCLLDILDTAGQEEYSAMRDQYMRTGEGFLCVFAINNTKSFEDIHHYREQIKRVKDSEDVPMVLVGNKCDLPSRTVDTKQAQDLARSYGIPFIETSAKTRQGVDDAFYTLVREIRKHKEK

`N#Cc1c(N)sc2c(F)ccc(-c3c(C(F)(F)F)cc4c(N5CC6CCC(C5)N6)nc(OCC5CCS(=O)(=O)CC5)nc4c3F)c12` [Compound 53] was tested, and the IC50 [1] was 100 to 1000 nM, the IC50 [2] was 1000 to 10000 nM and the IC50 [3] was > 10000 nM. The IC50 [4] was 100 to 1000 nM, the IC50 [5] was ≤ 100 nM and the IC50 [6] was > 10000 nM.
For `N#Cc1c(N)sc2c(F)ccc(-c3c(C(F)(F)F)cc4c(N5C[C@H]6CC[C@@H](C5)N6)nc(OCC5CCOCC5)nc4c3F)c12` [Compound 37, 4-(4-((1R,5S)-3,8-diazabicyclo[3.2.1]octan-3-yl)-8-fluoro-2-((tetrahydro-2H-pyran-4-yl)methoxy)-6-(trifluoromethyl)quinazolin-7-yl)-2-amino-7-fluorobenzo[b]thiophene-3-carbonitrile], the IC50 [1] was 100 to 1000 nM, the IC50 [2] was > 10000 nM and the IC50 [3] was > 10000 nM. The IC50 [4] was 1000 to 10000 nM, the IC50 [5] was ≤ 100 nM and the IC50 [6] was > 10000 nM.
`N#Cc1c(N)sc2c(F)ccc(-c3c(C(F)(F)F)cc4c(N5CC6CCC(C5)N6)nc(OC[C@H](O)CO)nc4c3F)c12` [Compound 29] showed an IC50 [1] of 100 to 1000 nM, an IC50 [2] of 1000 to 10000 nM and an IC50 [3] of 1000 to 10000 nM. The IC50 [4] was 1000 to 10000 nM, the IC50 [5] was ≤ 100 nM and the IC50 [6] was 1000 to 10000 nM.
`CN1C[C@@H](COc2nc(N3CC4CCC(C3)N4)c3cc(C(F)(F)F)c(-c4ccc(F)c5sc(N)c(C#N)c45)c(F)c3n2)CC1=O` [Compound 56] gave an IC50 [1] of 100 to 1000 nM, an IC50 [2] of 1000 to 10000 nM and an IC50 [3] of 1000 to 10000 nM. For the same molecule, the IC50 [4] was 100 to 1000 nM, the IC50 [5] was ≤ 100 nM and the IC50 [6] was > 10000 nM.
With `N#Cc1c(N)sc2c(F)ccc(-c3c(C(F)(F)F)cc4c(N5CC6CCC(C5)N6)nc(OCCc5cnoc5)nc4c3F)c12` [Compound 65] the IC50 [1] was 100 to 1000 nM, the IC50 [2] was > 10000 nM and the IC50 [3] was > 10000 nM. For the same molecule, the IC50 [4] was 1000 to 10000 nM, the IC50 [5] was ≤ 100 nM and the IC50 [6] was > 10000 nM.
In the case of `N#Cc1c(N)sc2c(F)ccc(-c3c(C(F)(F)F)cc4c(N5CC6CCC(C5)N6)nc(OCCO)nc4c3F)c12` [Compound 32], the IC50 [1] is reported as 100 to 1000 nM, the IC50 [2] is reported as > 10000 nM and the IC50 [3] is reported as > 10000 nM. For the same molecule, the IC50 [4] was 1000 to 10000 nM, the IC50 [5] was ≤ 100 nM and the IC50 [6] was > 10000 nM.
In the case of `N#Cc1c(N)sc2c(F)ccc(-c3c(C(F)(F)F)cc4c(N5CC6CCC(C5)N6)nc(OC[C@@H]5COCCO5)nc4c3F)c12` [Compound 38], the IC50 [1] is reported as 1000 to 10000 nM, the IC50 [2] is reported as > 10000 nM and the IC50 [3] is reported as > 10000 nM. For the same molecule, the IC50 [4] was 1000 to 10000 nM, the IC50 [5] was ≤ 100 nM and the IC50 [6] was > 10000 nM.
For `CN(c1nc(OCC2CCOCC2)nc2c(F)c(-c3ccc(F)c4sc(N)c(C#N)c34)c(C(F)(F)F)cc12)C1CCNCC1` [Compound 61], the IC50 [1] was 1000 to 10000 nM, the IC50 [2] was > 10000 nM and the IC50 [3] was > 10000 nM. The IC50 [4] was > 10000 nM, the IC50 [5] was > 1000 nM and the IC50 [6] was > 10000 nM.
With `CC(=O)Nc1nc(N2CC3CCC(C2)N3)c2cc(C(F)(F)F)c(-c3ccc(F)c4sc(N)c(C#N)c34)c(F)c2n1` [Compound 28] the IC50 [1] was 1000 to 10000 nM, the IC50 [2] was > 10000 nM and the IC50 [3] was > 10000 nM. For the same molecule, the IC50 [4] was > 10000 nM, the IC50 [5] was ≤ 100 nM and the IC50 [6] was > 10000 nM.
With `CN(c1nc(OCC2CCOCC2)nc2c(F)c(-c3ccc(F)c4sc(N)c(C#N)c34)c(C(F)(F)F)cc12)[C@H]1CCCNC1` [Compound 63] the IC50 [1] was > 10000 nM, the IC50 [2] was > 10000 nM and the IC50 [3] was > 10000 nM. For the same molecule, the IC50 [4] was > 10000 nM, the IC50 [5] was > 1000 nM and the IC50 [6] was > 10000 nM.
With `N#Cc1c(N)sc2c(F)ccc(-c3c(C(F)(F)F)cc4c(N5CC6CCC(C5)N6)nc(OCCc5ccon5)nc4c3F)c12` [Compound 42] the IC50 [1] was 100 to 1000 nM, the IC50 [2] was > 10000 nM and the IC50 [3] was 1000 to 10000 nM. For the same molecule, the IC50 [4] was 1000 to 10000 nM, the IC50 [5] was ≤ 100 nM and the IC50 [6] was > 10000 nM.
With `N#Cc1c(N)sc2c(F)ccc(-c3c(C(F)(F)F)cc4c(N5CC6CCC(C5)N6)nc(OCC(CO)CO)nc4c3F)c12` [Compound 30] the IC50 [1] was 100 to 1000 nM, the IC50 [2] was 1000 to 10000 nM and the IC50 [3] was 1000 to 10000 nM. The IC50 [4] was 100 to 1000 nM, the IC50 [5] was ≤ 100 nM and the IC50 [6] was > 10000 nM.
For `COCCCOc1nc(N2CC3CCC(C2)N3)c2cc(C(F)(F)F)c(-c3ccc(F)c4sc(N)c(C#N)c34)c(F)c2n1` [Compound 36], the IC50 [1] was 100 to 1000 nM, the IC50 [2] was > 10000 nM and the IC50 [3] was > 10000 nM. The IC50 [4] was 1000 to 10000 nM, the IC50 [5] was ≤ 100 nM and the IC50 [6] was > 10000 nM.
In the case of `N#Cc1c(N)sc2c(F)ccc(-c3c(C(F)(F)F)cc4c(N5CC6CCC(C5)N6)nc(OCCCO)nc4c3F)c12` [Compound 31], the IC50 [1] is reported as 100 to 1000 nM, the IC50 [2] is reported as > 10000 nM and the IC50 [3] is reported as > 10000 nM. For the same molecule, the IC50 [4] was 1000 to 10000 nM, the IC50 [5] was ≤ 100 nM and the IC50 [6] was > 10000 nM.
In the case of `CN1C(=O)CC[C@H]1COc1nc(N2CC3CCC(C2)N3)c2cc(C(F)(F)F)c(-c3ccc(F)c4sc(N)c(C#N)c34)c(F)c2n1` [Compound 54], the IC50 [1] is reported as 100 to 1000 nM, the IC50 [2] is reported as > 10000 nM and the IC50 [3] is reported as > 10000 nM. For the same molecule, the IC50 [4] was 1000 to 10000 nM, the IC50 [5] was ≤ 100 nM and the IC50 [6] was > 10000 nM.
